What all share (assay): relative viability (nuclei count vs DMSO), 5 days (fraction); higher = more cells survive
Compound in assay [1]: C1=CC2=NC=CN=C2C=C1/C=C/3\C(=O)NC(=O)S3 + CS(=O)(=O)N1CCN(Cc2cc3nc(-c4cccc5[nH]ncc45)nc(N4CCOCC4)c3s2)CC1 [Pictilisib] (partner 1 µM)
The method, boiled down:
(§1)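 Nuclei were stained with Hoechst during a one-step fixation (final 0.05% Triton X-100, 1% formaldehyde, 1 ug/ml Hoechst) carried out 5 days after dosing, then counted on 4× images. The cells, lung cancer lines in 1536-well plates, had been dosed by pin tool the day after seeding with one drug alone or a fixed anchor-drug dose plus five library-drug doses (not always all listed) in √10 steps. Relative viability is the nuclei count in treated wells divided by that in vehicle wells, and each value is the median of duplicate plates.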

Compound in assay [2]: C1=CC2=NC=CN=C2C=C1/C=C/3\C(=O)NC(=O)S3 + CC(C)C[C@H](NC(=O)[C@H](Cc1ccccc1)NC(=O)c1cnccn1)B(O)O [Bortezomib] (partner 0.002 µM)
The method, boiled down:
as §1

Compound in assay [3]: C1=CC2=NC=CN=C2C=C1/C=C/3\C(=O)NC(=O)S3 + O=C(c1cc(Cc2n[nH]c(=O)c3ccccc23)ccc1F)N1CCN(C(=O)C2CC2)CC1 [Olaparib] (partner 8 µM)
A digest of the protocol:
as §1

Compound in the assay “BGJ398 + Dasatinib”: CCN1CCN(c2ccc(Nc3cc(N(C)C(=O)Nc4c(Cl)c(OC)cc(OC)c4Cl)ncn3)cc2)CC1 [BGJ398] + Cc1nc(Nc2ncc(C(=O)Nc3c(C)cccc3Cl)s2)cc(N2CCN(CCO)CC2)n1 [Dasatinib] (partner 0.075 µM)
The method, boiled down:
as §1

NCI-H1299: the relative viability in assay [1] (first compound 0.02 µM) was found to be 0.753; in assay [1] (first compound 0.06325 µM) it was 0.925; in assay [1] (first compound 0.2 µM), 0.931; in assay [1] (first compound 0.6325 µM), 0.762; in assay [1] (first compound 2 µM), 0.85; in assay [2] (first compound 0.02 µM) it was 1.04. The relative viability is 1.04 in assay [2] (first compound 0.06325 µM); 1.04 in assay [2] (first compound 0.2 µM); 1.03 in assay [2] (first compound 0.6325 µM); 1.06 in assay [2] (first compound 2 µM); 1.01 in assay [3] (first compound 0.02 µM); 0.961 in assay [3] (first compound 0.06325 µM). The relative viability amounted to 1.01 in assay [3] (first compound 0.2 µM), 0.928 in assay [3] (first compound 0.6325 µM) and 1.01 in assay [3] (first compound 2 µM).

Turning to NCI-H1395, the relative viability in assay [1] (first compound 0.02 µM) came out at 0.669; in assay [1] (first compound 0.06325 µM), 0.596; in assay [1] (first compound 0.2 µM) it was 0.786; in assay [1] (first compound 0.6325 µM), 0.564; in assay [1] (first compound 2 µM) it was 0.512; in assay [3] (first compound 0.02 µM) it was 0.43. For the same cell line, the relative viability was 0.427 in assay [3] (first compound 0.06325 µM); 0.464 in assay [3] (first compound 0.2 µM); 0.5 in assay [3] (first compound 0.6325 µM); 0.438 in assay [3] (first compound 2 µM); 0.41 with BGJ398 + Dasatinib (first compound 0.01 µM); 0.397 with BGJ398 + Dasatinib (first compound 0.03162 µM). Besides, the relative viability with BGJ398 + Dasatinib (first compound 0.1 µM) was 0.363; with BGJ398 + Dasatinib (first compound 0.3162 µM), 0.379; with BGJ398 + Dasatinib (first compound 1 µM) it was 0.313.

As to NCI-H1563, the relative viability was 0.663 in assay [1] (first compound 0.02 µM); 0.659 in assay [1] (first compound 0.06325 µM); 0.691 in assay [1] (first compound 0.2 µM); 0.635 in assay [1] (first compound 0.6325 µM); 0.634 in assay [1] (first compound 2 µM); 0.828 in assay [2] (first compound 0.02 µM). Moreover, the relative viability in assay [2] (first compound 0.06325 µM) came to 0.788; in assay [2] (first compound 0.2 µM), 0.871; in assay [2] (first compound 0.6325 µM), 0.753; in assay [2] (first compound 2 µM), 0.715; with BGJ398 + Dasatinib (first compound 0.01 µM) it was 0.461; with BGJ398 + Dasatinib (first compound 0.03162 µM), 0.491. Moreover, the relative viability is 0.432 in the assay with BGJ398 + Dasatinib (first compound 0.1 µM), 0.391 with BGJ398 + Dasatinib (first compound 0.3162 µM) and 0.329 with BGJ398 + Dasatinib (first compound 1 µM).

NCI-H1648: the relative viability in assay [3] (first compound 0.02 µM) was 0.795; in assay [3] (first compound 0.06325 µM), 0.547; in assay [3] (first compound 0.2 µM) it was 0.886; in assay [3] (first compound 2 µM), 0.563.

Take NCI-H1703: the relative viability in assay [1] (first compound 0.02 µM) was 0.241; in assay [1] (first compound 0.06325 µM) it was 0.318; in assay [1] (first compound 0.2 µM), 0.187; in assay [1] (first compound 0.6325 µM), 0.243; in assay [1] (first compound 2 µM), 0.232; in assay [2] (first compound 0.02 µM) it was 0.288. The relative viability in assay [2] (first compound 0.06325 µM) was found to be 0.322; in assay [2] (first compound 0.2 µM) it was 0.38; in assay [2] (first compound 0.6325 µM) it was 0.474; in assay [2] (first compound 2 µM), 0.489; in assay [3] (first compound 0.02 µM), 0.428; in assay [3] (first compound 0.06325 µM), 0.405. The relative viability in assay [3] (first compound 0.2 µM) was 0.434; in assay [3] (first compound 0.6325 µM), 0.27; in assay [3] (first compound 2 µM), 0.322.

Turning to NCI-H1793, the relative viability came to 0.344 in assay [1] (first compound 0.02 µM); 0.395 in assay [1] (first compound 0.06325 µM); 0.328 in assay [1] (first compound 0.2 µM); 0.294 in assay [1] (first compound 0.6325 µM); 0.263 in assay [1] (first compound 2 µM); 0.805 in assay [3] (first compound 0.02 µM). For the same cell line, the relative viability in assay [3] (first compound 0.06325 µM) was determined as 0.752; in assay [3] (first compound 0.2 µM), 0.801; in assay [3] (first compound 0.6325 µM) it was 0.779; in assay [3] (first compound 2 µM) it was 0.702; in the assay with BGJ398 + Dasatinib (first compound 0.01 µM), 0.286; with BGJ398 + Dasatinib (first compound 0.03162 µM) it was 0.398. The relative viability was found to be 0.403 in the assay with BGJ398 + Dasatinib (first compound 0.1 µM), 0.316 with BGJ398 + Dasatinib (first compound 0.3162 µM) and 0.276 with BGJ398 + Dasatinib (first compound 1 µM).

Regarding NCI-H1944, the relative viability was determined as 0.284 in assay [1] (first compound 0.02 µM); 0.349 in assay [1] (first compound 0.06325 µM); 0.367 in assay [1] (first compound 0.2 µM); 0.319 in assay [1] (first compound 0.6325 µM); 0.297 in assay [1] (first compound 2 µM); 0.384 in assay [3] (first compound 0.02 µM). Also, the relative viability amounted to 0.391 in assay [3] (first compound 0.06325 µM); 0.333 in assay [3] (first compound 0.2 µM); 0.412 in assay [3] (first compound 0.6325 µM); 0.418 in assay [3] (first compound 2 µM); 0.166 with BGJ398 + Dasatinib (first compound 0.01 µM); 0.21 with BGJ398 + Dasatinib (first compound 0.03162 µM). Besides, the relative viability in the assay with BGJ398 + Dasatinib (first compound 0.1 µM) worked out at 0.23; with BGJ398 + Dasatinib (first compound 0.3162 µM), 0.198; in the assay with BGJ398 + Dasatinib (first compound 1 µM) it was 0.203.

As to NCI-H2170, the relative viability in assay [1] (first compound 0.02 µM) was determined as 0.296; in assay [1] (first compound 0.06325 µM), 0.273; in assay [1] (first compound 0.2 µM), 0.369; in assay [1] (first compound 0.6325 µM) it was 0.28; in assay [1] (first compound 2 µM), 0.258; in assay [3] (first compound 0.02 µM), 0.55. For the same cell line, the relative viability in assay [3] (first compound 0.06325 µM) came out at 0.594; in assay [3] (first compound 0.2 µM) it was 0.609; in assay [3] (first compound 0.6325 µM), 0.577; in assay [3] (first compound 2 µM), 0.563; with BGJ398 + Dasatinib (first compound 0.01 µM), 0.527; in the assay with BGJ398 + Dasatinib (first compound 0.03162 µM), 0.427. Moreover, the relative viability with BGJ398 + Dasatinib (first compound 0.1 µM) came out at 0.562; in the assay with BGJ398 + Dasatinib (first compound 0.3162 µM), 0.545; in the assay with BGJ398 + Dasatinib (first compound 1 µM), 0.558.

For NCI-H2342, the relative viability in assay [3] (first compound 0.02 µM) came out at 0.396; in assay [3] (first compound 0.06325 µM), 0.403; in assay [3] (first compound 0.2 µM), 0.449; in assay [3] (first compound 0.6325 µM), 0.415; in assay [3] (first compound 2 µM), 0.373; with BGJ398 + Dasatinib (first compound 0.01 µM) it was 0.321. Besides, the relative viability is 0.33 in the assay with BGJ398 + Dasatinib (first compound 0.03162 µM), 0.334 in the assay with BGJ398 + Dasatinib (first compound 0.1 µM), 0.318 with BGJ398 + Dasatinib (first compound 0.3162 µM) and 0.295 in the assay with BGJ398 + Dasatinib (first compound 1 µM).

On to SK-MES-1, for which the relative viability was determined as 0.385 in assay [1] (first compound 0.02 µM); 0.391 in assay [1] (first compound 0.06325 µM); 0.375 in assay [1] (first compound 0.2 µM); 0.353 in assay [1] (first compound 0.6325 µM); 0.335 in assay [1] (first compound 2 µM); 0.677 in assay [3] (first compound 0.02 µM). For the same cell line, the relative viability in assay [3] (first compound 0.06325 µM) amounted to 0.793; in assay [3] (first compound 0.2 µM) it was 0.846; in assay [3] (first compound 0.6325 µM), 0.796; in assay [3] (first compound 2 µM), 0.657; with BGJ398 + Dasatinib (first compound 0.01 µM), 0.421; with BGJ398 + Dasatinib (first compound 0.03162 µM), 0.33. Further, the relative viability with BGJ398 + Dasatinib (first compound 0.1 µM) worked out at 0.433; with BGJ398 + Dasatinib (first compound 0.3162 µM) it was 0.426; with BGJ398 + Dasatinib (first compound 1 µM) it was 0.418.

For SW 900, the relative viability in assay [3] (first compound 0.02 µM) stood at 0.789; in assay [3] (first compound 0.06325 µM), 0.769; in assay [3] (first compound 0.2 µM) it was 0.884; in assay [3] (first compound 2 µM), 0.727; with BGJ398 + Dasatinib (first compound 0.01 µM) it was 0.448; in the assay with BGJ398 + Dasatinib (first compound 0.03162 µM), 0.388. Moreover, the figures for the relative viability with BGJ398 + Dasatinib (first compound 0.1 µM), with BGJ398 + Dasatinib (first compound 0.3162 µM) and in the assay with BGJ398 + Dasatinib (first compound 1 µM) were 0.352, 0.383 and 0.232, respectively.

The record behind these values is the supplement of paper PMC10307832.
